# From patent publication US8460274B2, “Long term drug delivery devices with polyurethane-based polymers and their manufacture” (Endo Pharmaceuticals Solutions Inc., priority 2008, dated 2013)
# “And” between values parts separate entries of the source, which are not always exact repeats. Identical values can stand only once. Counter-ions that a name gives are not always drawn.
# Legend:
# [1] = In vitro elution of histrelin from Tecophilic HP-60D-20 polyurethane implant (Example 1); assay type: physicochemical; conditions: HP-60D-20 implant
# Source text: HP-60D-20 is extruded to tubes with thickness of 0.30 mm with inside diameter of 1.75 mm. The tubes are then cut into 25 mm in length. One side of the tube is sealed with heat using a heat sealer. The sealing time is less than one minute. Four pellets of histrelin acetate are loaded into the tube. […] Each pellet is comprised of a mixture of 98% histrelin and 2% stearic acid. The second end open of the tube is sealed with heat in the same way as for the first end. The loaded implant is then conditioned and primed. The conditioning takes place at room temperature in a 0.9% saline solution for one day. Upon completion of the conditioning, the implant undergoes priming. The priming takes place at room temperatures in a 1.8% saline solution for one day. Each implant is tested in vitro in a medium selected to mimic the pH found in the human body. The temperature of the selected medium was kept at approximately 37° C. during the testing. The release rates are shown on FIG. 4 and Table 2.
# [2] = Release rates of active agents from Tecophilic, Tecoflex and Carbothane polyurethane implants (Example 6); assay type: physicochemical
# [3] = cited from earlier work
# [4] = subcutaneous implants, end of the third month
# [5] = cited from earlier work; remark: listed apart in the source
# [6] = In vitro elution of naltrexone from Tecophilic HP-60D-35 polyurethane implants (Example 2); assay type: physicochemical; conditions: HP-60D-35 implants -1, -2, -3, in vitro
# Procedure: HP-60D-35 is extruded to tubes with thickness of 0.30 mm with inside diameter of 1.75 mm. The tubes are then cut into 32 mm in length. One side of the tube is sealed with heat using a heat sealer. The sealing time is less than one minute. Six pellets of naltrexone are loaded into the tubes and both open sides of the tubes are sealed with heat. Each pellet weighs approximately 15.0 mg for a total of 91 mg. The second end open of the tube is sealed with heat in the same way as for the first end. The loaded implant is then conditioned and primed. The conditioning takes place at room temperature in a 0.9% saline solution for one week. Upon completion of the conditioning, the implant undergoes priming. The priming takes place at room temperatures in a 1.8% saline solution for one week. Each implant is tested in vitro in a medium selected to mimic the pH found in the human body. The temperature of the selected medium was kept at approximately 37° C. during the testing. The release rates are shown on FIG. 5 and Table 3.
# [7] = Carbothane PC-3595A, F.M.: 4,500
compound,measurement,setting,value
CCNC(=O)[C@@H]1CCCN1C(=O)[C@H](CCCNC(=N)N)NC(=O)[C@H](CC(C)C)NC(=O)[C@@H](Cc1cn(Cc2ccccc2)cn1)NC(=O)[C@H](Cc1ccc(O)cc1)NC(=O)[C@H](CO)NC(=O)[C@H](Cc1c[nH]c2ccccc12)NC(=O)[C@H](Cc1cnc[nH]1)NC(=O)[C@@H]1CCC(=O)N1 [Histrelin Acetate],Histrelin Elution Rates,[1]; week 1 of elution,451.733 µg/day
same,Histrelin Elution Rates,[1]; week 2 of elution,582.666 µg/day
same,Histrelin Elution Rates,[1]; week 3 of elution,395.9 µg/day
same,Histrelin Elution Rates,[1]; week 4 of elution,310.29 µg/day
same,Histrelin Elution Rates,[1]; week 5 of elution,264.92 µg/day
same,Histrelin Elution Rates,[1]; week 6 of elution,247.17 µg/day
same,Histrelin Elution Rates,[1]; week 7 of elution,215.93 µg/day
same,Histrelin Elution Rates,[1]; week 8 of elution,201.78 µg/day
same,Histrelin Elution Rates,[1]; week 9 of elution,183.22 µg/day
same,Histrelin Elution Rates,[1]; week 10 of elution,174.99 µg/day
same,Histrelin Elution Rates,[1]; week 11 of elution,167.72 µg/day
same,Histrelin Elution Rates,[1]; week 12 of elution,158.37 µg/day
same,Histrelin Elution Rates,[1]; week 13 of elution,153.95 µg/day
same,Histrelin Elution Rates,[1]; week 14 of elution,146.46 µg/day
same,Histrelin Elution Rates,[1]; week 15 of elution,139.83 µg/day
same,Histrelin Elution Rates,[1]; week 16 of elution,129.6 µg/day
same,Histrelin Elution Rates,[1]; week 17 of elution,124.46 µg/day
same,Histrelin Elution Rates,[1]; week 18 of elution,118.12 µg/day
same,Histrelin Elution Rates,[1]; week 19 of elution,120.35 µg/day
same,non-normalized release rate,[2]; [7],0.4 µg/day
same,release rate normalized to surface area of the implant,[2]; [7],0.2 μg/day/cm^2
same,non-normalized release rate,"[2]; Tecoflex EG 100A, F.M.: 10,000",0.5 µg/day
same,release rate normalized to surface area of the implant,"[2]; Tecoflex EG 100A, F.M.: 10,000",0.3 μg/day/cm^2
same,non-normalized release rate,"[2]; Tecophilic HP-60D-20, 15% EWC",150 µg/day
same,release rate normalized to surface area of the implant,"[2]; Tecophilic HP-60D-20, 15% EWC",93 μg/day/cm^2
same,non-normalized release rate,"[2]; Tecophilic HP-60D-35, 24% EWC",400 µg/day
same,release rate normalized to surface area of the implant,"[2]; Tecophilic HP-60D-35, 24% EWC",248 μg/day/cm^2
same,non-normalized release rate,"[2]; Tecophilic HP-60D-60, 31% EWC",500 µg/day
same,release rate normalized to surface area of the implant,"[2]; Tecophilic HP-60D-60, 31% EWC",309 μg/day/cm^2
Cc1ccccc1N1C(=O)c2cc(S(N)(=O)=O)c(Cl)cc2NC1C (stereo not drawn) [Metolazone],non-normalized release rate,"[2]; Carbothane PC-3575A, F.M.: 620",20 µg/day
same,release rate normalized to surface area of the implant,"[2]; Carbothane PC-3575A, F.M.: 620",8.4 μg/day/cm^2
same,non-normalized release rate,[2]; [7],6.1 µg/day
same,release rate normalized to surface area of the implant,[2]; [7],2.6 μg/day/cm^2
same,non-normalized release rate,"[2]; Tecoflex EG 100A, F.M.: 10,000",5.5 µg/day
same,release rate normalized to surface area of the implant,"[2]; Tecoflex EG 100A, F.M.: 10,000",2.3 μg/day/cm^2
same,non-normalized release rate,"[2]; Tecoflex EG-85A, F.M.: 2,300",77 µg/day
same,release rate normalized to surface area of the implant,"[2]; Tecoflex EG-85A, F.M.: 2,300",32 μg/day/cm^2
same,non-normalized release rate,"[2]; Tecophilic HP-60D-20, 15% EWC",124 µg/day
same,release rate normalized to surface area of the implant,"[2]; Tecophilic HP-60D-20, 15% EWC",50 μg/day/cm^2
same,Log P,[3],Log P = 2.50
Cc1nc2n(c(=O)c1CCN1CCC(c3noc4cc(F)ccc34)CC1)CCCC2 [Risperidone],non-normalized release rate,"[2]; Carbothane PC-3575A, F.M.: 620",40 µg/day
same,non-normalized release rate,[2]; [7],11 µg/day
same,non-normalized release rate,"[2]; Tecoflex EG 100A, F.M.: 10,000",8 µg/day
same,non-normalized release rate,"[2]; Tecoflex EG-65D, F.M.: 37,000",2 µg/day
same,non-normalized release rate,"[2]; Tecoflex EG-85A, F.M.: 2,300",150 µg/day
same,non-normalized release rate,"[2]; Tecophilic HP-60D-20, 15% EWC",150 µg/day
same,risperidone level in the dog plasma,[4],still present at a high level
same,Log P,[3],Log P = 3.28
Clc1cccc(Cl)c1N=C1NCCN1 [Clonidine Base],non-normalized release rate,"[2]; Carbothane PC-3575A, F.M.: 620",400 µg/day
same,release rate normalized to surface area of the implant,"[2]; Carbothane PC-3575A, F.M.: 620",202 μg/day/cm^2
same,non-normalized release rate,[2]; [7],270 µg/day
same,release rate normalized to surface area of the implant,[2]; [7],136 μg/day/cm^2
same,non-normalized release rate,"[2]; Tecoflex EG 100A, F.M.: 10,000",175 µg/day
same,release rate normalized to surface area of the implant,"[2]; Tecoflex EG 100A, F.M.: 10,000",88 μg/day/cm^2
same,non-normalized release rate,"[2]; Tecoflex EG-65D, F.M.: 37,000",50 µg/day
same,release rate normalized to surface area of the implant,"[2]; Tecoflex EG-65D, F.M.: 37,000",25 μg/day/cm^2
same,non-normalized release rate,"[2]; Tecoflex EG-85A, F.M.: 2,300",2000 µg/day
same,release rate normalized to surface area of the implant,"[2]; Tecoflex EG-85A, F.M.: 2,300",1053 μg/day/cm^2
same,non-normalized release rate,"[2]; Tecophilic HP-60D-20, 15% EWC",2000 µg/day
same,release rate normalized to surface area of the implant,"[2]; Tecophilic HP-60D-20, 15% EWC",1011 μg/day/cm^2
same,Log P,[3],Log P = 2.56
C#CCN(C)[C@H](C)Cc1ccccc1 [Selegiline HCL],non-normalized release rate,"[2]; Carbothane PC-3575A, F.M.: 620",70 µg/day
same,release rate normalized to surface area of the implant,"[2]; Carbothane PC-3575A, F.M.: 620",36 μg/day/cm^2
same,non-normalized release rate,[2]; [7],30 µg/day
same,release rate normalized to surface area of the implant,[2]; [7],15 μg/day/cm^2
same,non-normalized release rate,"[2]; Tecoflex EG 100A, F.M.: 10,000",14 µg/day
same,release rate normalized to surface area of the implant,"[2]; Tecoflex EG 100A, F.M.: 10,000",7.2 μg/day/cm^2
same,non-normalized release rate,"[2]; Tecoflex EG-65D, F.M.: 37,000",8 µg/day
same,release rate normalized to surface area of the implant,"[2]; Tecoflex EG-65D, F.M.: 37,000",4.1 μg/day/cm^2
same,non-normalized release rate,"[2]; Tecoflex EG-85A, F.M.: 2,300",3000 µg/day
same,release rate normalized to surface area of the implant,"[2]; Tecoflex EG-85A, F.M.: 2,300",1518 μg/day/cm^2
same,non-normalized release rate,"[2]; Tecophilic HP-60D-20, 15% EWC",600 µg/day
same,release rate normalized to surface area of the implant,"[2]; Tecophilic HP-60D-20, 15% EWC",294 μg/day/cm^2
C[C@@H](O)[C@@H]1NC(=O)[C@H](CCCCN)NC(=O)[C@@H](Cc2c[nH]c3ccccc23)NC(=O)[C@H](Cc2ccccc2)NC(=O)[C@@H](NC(=O)[C@H](N)Cc2ccccc2)CSSC[C@@H](C(=O)N[C@H](CO)[C@@H](C)O)NC1=O [Octreotide Acetate],non-normalized release rate,"[2]; Tecoflex EG-85A, F.M.: 2,300",30 µg/day
same,release rate normalized to surface area of the implant,"[2]; Tecoflex EG-85A, F.M.: 2,300",16 μg/day/cm^2
same,non-normalized release rate,"[2]; Tecophilic HP-60D-05, 5.5% EWC",0 µg/day
same,release rate normalized to surface area of the implant,"[2]; Tecophilic HP-60D-05, 5.5% EWC",0 μg/day/cm^2
same,non-normalized release rate,"[2]; Tecophilic HP-60D-10, 8.7% EWC",25 µg/day
same,release rate normalized to surface area of the implant,"[2]; Tecophilic HP-60D-10, 8.7% EWC",11 μg/day/cm^2
same,non-normalized release rate,"[2]; Tecophilic HP-60D-20, 15% EWC",1500 µg/day
same,release rate normalized to surface area of the implant,"[2]; Tecophilic HP-60D-20, 15% EWC",758 μg/day/cm^2
same,non-normalized release rate,"[2]; Tecophilic HP-60D-35, 24% EWC",4000 µg/day
same,release rate normalized to surface area of the implant,"[2]; Tecophilic HP-60D-35, 24% EWC",2022 μg/day/cm^2
same,Relative Water Solubility,[5],"Very soluble,"
O=C1CC[C@@]2(O)[C@H]3Cc4ccc(O)c5c4[C@@]2(CCN3CC2CC2)[C@H]1O5 [Naltrexone Base],Naltrexone Elution Rates,[6]; week 1 of release,1529.26 µg/day and 767.38 µg/day and 1400.95 µg/day
same,Naltrexone Elution Rates,[6]; week 2 of release,1511.77 µg/day and 1280.03 µg/day and 1498.86 µg/day
same,Naltrexone Elution Rates,[6]; week 3 of release,1456.01 µg/day and 1635.97 µg/day and 1449.49 µg/day
same,Naltrexone Elution Rates,[6]; week 4 of release,1378.27 µg/day and 1607.13 µg/day and 1500.42 µg/day
same,Naltrexone Elution Rates,[6]; week 5 of release,1393.05 µg/day and 1614.52 µg/day and 1558.37 µg/day
same,Naltrexone Elution Rates,[6]; week 6 of release,1321.71 µg/day and 1550.39 µg/day and 1436.03 µg/day
same,Naltrexone Elution Rates,[6]; week 7 of release,1273.07 µg/day and 1424.24 µg/day and 1300.73 µg/day
same,Naltrexone Elution Rates,[6]; week 8 of release,1172.82 µg/day and 1246.48 µg/day and 1221.57 µg/day
same,non-normalized release rate,[2]; [7],25 µg/day
same,release rate normalized to surface area of the implant,[2]; [7],5.5 μg/day/cm^2
same,non-normalized release rate,"[2]; Tecoflex EG 100A, F.M.: 10,000",55 µg/day
same,release rate normalized to surface area of the implant,"[2]; Tecoflex EG 100A, F.M.: 10,000",23 μg/day/cm^2
same,non-normalized release rate,"[2]; Tecophilic HP-60D-05, 5.5% EWC",50 µg/day
same,release rate normalized to surface area of the implant,"[2]; Tecophilic HP-60D-05, 5.5% EWC",12.7 μg/day/cm^2
same,non-normalized release rate,"[2]; Tecophilic HP-60D-10, 8.7% EWC",500 µg/day
same,release rate normalized to surface area of the implant,"[2]; Tecophilic HP-60D-10, 8.7% EWC",127 μg/day/cm^2
same,non-normalized release rate,"[2]; Tecophilic HP-60D-20, 15% EWC",1000 µg/day
same,release rate normalized to surface area of the implant,"[2]; Tecophilic HP-60D-20, 15% EWC",263 μg/day/cm^2
same,non-normalized release rate,"[2]; Tecophilic HP-60D-35, 24% EWC",1500 µg/day
same,release rate normalized to surface area of the implant,"[2]; Tecophilic HP-60D-35, 24% EWC",704 μg/day/cm^2
same,non-normalized release rate,"[2]; Tecophilic HP-60D-60, 31% EWC",2200 µg/day
same,release rate normalized to surface area of the implant,"[2]; Tecophilic HP-60D-60, 31% EWC",883 μg/day/cm^2
same,Log P,[3],Log P = 2.07
C[C@@H]1C[C@H]2[C@@H]3CCC4=CC(=O)C=C[C@]4(C)[C@@]3(F)[C@@H](O)C[C@]2(C)[C@@]1(O)C(=O)CO [Dexamethasone],Log P,[3],Log P = 1.93
